# Tests used:
# [1] = blood concentration of TPPU by LC-MS; type: in vivo; details: mouse, whole blood; mice, 24 h after last oral administration, after 15 days at 1 mg/kg/day
# Protocol: The samples were taken at 24 h after the last oral gavage treatment. […] The results are expressed as mean±SD from six mice per group.
# Animals orally received 1×10^9 CFU/ml of a diluted culture of freshly grown A. actinomycetemcomitans JP2, in a volume of 100 μl PBS containing 2% carboxymethylcellulose. The solution was placed into the oral cavity with a micropipette, and the procedure was repeated at 48 and 96 h after the first inoculation. Treatment with TPPU and EETs was initiated after the third inoculation of bacteria. The inhibitor was dissolved in PEG400 and administered at 1 mg/kg/day by oral gavage. For the treatment with EETs, we attempted to apply viscous solution of mixture of EET-methyl ester regioisomers dissolved in PEG400 to the gum tissue using a fine pipette at a dose of 1 μg/kg/day. The mice received the entire EET dose. This was done immediately before the oral gavage with both groups of mice receiving TPPU or mice receiving vehicle alone. Because EETs are unstable in stomach acid we assume exposure is largely topical or buccal. All treatments continued for 15 days. […] The negative control group consisted of uninfected mice (sham-infected), the positive control group was infected and received the vehicle only. One day after the treatment period (16th day), animals were sacrificed by cardiac puncture after anesthesia with xylazine/ketamine. […]
# [2] = metabolic stability (method not given)
# sEH = molecular target: T1, sEH (Homo sapiens, UniProt P34913); assay: testing as sEH inhibitors (method not given); type: biochemical
# T1 sequence (P34913 1-555): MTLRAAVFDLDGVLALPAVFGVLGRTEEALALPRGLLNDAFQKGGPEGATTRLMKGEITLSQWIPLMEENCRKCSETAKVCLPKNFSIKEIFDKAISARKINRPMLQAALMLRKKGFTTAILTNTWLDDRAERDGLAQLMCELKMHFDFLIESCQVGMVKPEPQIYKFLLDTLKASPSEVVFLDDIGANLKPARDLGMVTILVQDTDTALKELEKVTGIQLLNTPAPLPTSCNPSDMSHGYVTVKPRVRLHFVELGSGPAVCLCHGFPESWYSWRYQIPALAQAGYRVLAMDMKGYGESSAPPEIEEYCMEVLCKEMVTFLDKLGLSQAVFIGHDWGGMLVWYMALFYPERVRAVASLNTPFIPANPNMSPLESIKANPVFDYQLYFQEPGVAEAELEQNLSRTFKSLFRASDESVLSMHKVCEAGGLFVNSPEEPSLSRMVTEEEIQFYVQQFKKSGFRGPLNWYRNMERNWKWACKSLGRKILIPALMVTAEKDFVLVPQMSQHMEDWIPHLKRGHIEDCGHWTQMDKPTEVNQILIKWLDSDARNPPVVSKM
SMILES,concentration at 24 h [1],metabolic stability [2],activity as inhibitor of sEH (sEH)
"CCC(=O)N1CCC(NC(=O)Nc2ccc(OC(F)(F)F)cc2)CC1 [TPPU, 1-trifluoromethoxyphenyl-3-(1-propionylpiperidin-4-yl) urea]",> 8000 ng/mL,–,–
"CCCCCCCCCCCCNC(=O)NC12CC3CC(CC(C3)C1)C2 [ADU, N-Adamantyl-N′-dodecyl urea]",–,metabolically stable,particularly high activity

# Reference: US11564914B2, “Methods of treating bone loss” (THE REGENTS OF THE UNIVERSITY OF CALIFORNIA, priority 2016, dated 2023)
